Test results taken from publication PMC8880268, “Magnolol and Luteolin Inhibition of α-Glucosidase Activity: Kinetics and Type of Interaction Detected by In Vitro and In Silico Studies” (Pharmaceuticals, 2022).

Tests used:
α-glucosidase [1] = target: T1, α-glucosidase (Saccharomyces cerevisiae, UniProt P38158); test: Kinetic analysis of yeast α-glucosidase inhibition (Michaelis–Menten and Lineweaver–Burk plots); format: biochemical; conditions: for Kcat of α-glucosidase: 0.075 µM α-glucosidase
T1 construct: purchased Merck KGaA, Darmstadt, Germany
T1 sequence (P38158 whole entry): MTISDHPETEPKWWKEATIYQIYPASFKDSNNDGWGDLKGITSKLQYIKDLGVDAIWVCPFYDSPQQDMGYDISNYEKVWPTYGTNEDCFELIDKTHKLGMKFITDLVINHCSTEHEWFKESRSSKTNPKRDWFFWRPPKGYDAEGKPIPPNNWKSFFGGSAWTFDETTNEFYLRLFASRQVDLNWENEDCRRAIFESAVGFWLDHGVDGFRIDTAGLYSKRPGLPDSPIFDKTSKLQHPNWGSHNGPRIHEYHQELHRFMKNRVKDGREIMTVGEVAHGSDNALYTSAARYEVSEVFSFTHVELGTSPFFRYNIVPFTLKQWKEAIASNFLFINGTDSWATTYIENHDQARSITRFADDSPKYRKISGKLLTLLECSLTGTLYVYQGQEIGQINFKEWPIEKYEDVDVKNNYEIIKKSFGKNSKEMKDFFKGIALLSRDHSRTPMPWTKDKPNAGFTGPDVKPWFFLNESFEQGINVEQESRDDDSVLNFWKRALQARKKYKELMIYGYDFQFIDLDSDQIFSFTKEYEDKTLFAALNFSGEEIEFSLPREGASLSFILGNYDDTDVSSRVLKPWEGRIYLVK
Description: The type of enzyme inhibition exerted by inhibitors was evaluated from kinetic studies using different substrate concentrations (0.25–2.5 mM pNPG) applying Michaelis–Menten and Lineweaver–Burk plots. Inhibition constants (Ki) were determined by plots of the Y-intercept of the Lineweaver–Burk plot vs. inhibitor concentration.

α-glucosidase [2] = target: T1, α-glucosidase; test: Fluorescence quenching analysis and thermodynamic parameters; format: binding; conditions: for Ksv (Stern–Volmer quenching constant): pH 6.8, α-glucosidase 0.35 µM
Description: The interaction of inhibitors with α-glucosidase was studied using the fluorescence quenching method. […] Measurements were made in the emission range of 300–450 nm, with an excitation of 280 nm, after 10 min of stabilization. The fluorescent spectra of α-glucosidase (0.35 µM) and each inhibitor (0–1.0 µM) were carried out at three different temperatures (298, 304, and 310 K) and the bandwidths were set at 5 nm for both emission and excitation slits. For each sample, three fluorescence spectra were acquired, and the blank was subtracted. The compound quenching mechanism was assessed using the Stern–Volmer equation: F0 / F = 1 + Ksv[Q] = 1 + Kq^.τo[Q], where F0 and F are the fluorescence measure in absence and in presence of different concentrations of quencher, respectively; Ksv is the Stern–Volmer quenching constant; Kq is the coefficient of quencher rate coefficient; τ0 is the life time of the excited state; and [Q] is the concentration of the quencher.
Further elaboration of the equilibrium within the free and bound molecules can be achieved through the analysis of the fluorescence emission data utilizing the following equation: log (F0 − F) / F = log Ka + n log [Q], which obtains the binding constant (Ka) and the number of binding sites per protein (n) for the enzyme-inhibitor system.
Thermodynamic spontaneity is an important factor in the study of protein-ligand interaction. A system tends not only toward a lower energy state (enthalpy, ΔH), but also according to a state of disorder (entropy, ΔS). Thermodynamic parameters were obtained according to the Van ’t Hoff equation and the plot of “log Ka vs. 1/T”. The trade-off between enthalpy (ΔH°) and entropy (ΔS°) is used to obtain the standard free energy variation (ΔG°).

α-glucosidase [3] = target: T1, α-glucosidase; test: Inactivation kinetics, time course of α-glucosidase activity; format: biochemical; conditions: enzyme 0.075 µM, pNPG 2 mM
Description: The enzyme and substrate concentrations were 0.075 µM and 2 mM, respectively.

α-glucosidase [4] = target: T1, α-glucosidase; test: Yeast α-glucosidase inhibitory assay (pNPG substrate, absorbance 405 nm); format: biochemical; conditions: plots v vs. [α-glucosidase] at different inhibitor concentrations
Description: α-Glucosidase inhibitory activity was determined according to a previous method. Briefly, 0.1 mM PBS (pH 6.8) was used to dissolve α-glucosidase and pNPG. In detail, 80 μL of PBS or 80 μL of test sample were added to 96-well plates. Successively, 20 μL of enzyme (0.025–0.125 µM) were added to each well. Magnolol (10–100 μM) and luteolin (5–50 μM) were prepared in DMSO (<1% v/v). […] Each sample was incubated with α-glucosidase for 10 min at 37 °C. The reaction started by adding 200 μL of pNPG (2 mM). The absorbance values were detected at 405 nm for 60 min, using a PerkinElmer Victor Nivo microplate spectrophotometer (Waltham, MA, USA). The α-glucosidase activity in the absence of inhibitors was defined as 100%. The half-maximal inhibitory concentration (IC50) was estimated by plot of relative enzymatic activity vs. inhibitor concentration.

α-glucosidase [5] = conditions: cited from earlier work; for type of inhibition (inhibition kinetic assays): ref 19; for IC50: studied with 0.5 µM of α-glucosidase ref 19
[6] = 298–310 K, Van ’t Hoff equation

Compound: C[C@H]1O[C@H](O[C@H]2[C@H](O)[C@@H](O)[C@@H](O[C@H]3[C@H](O)[C@@H](O)C(O)O[C@@H]3CO)O[C@@H]2CO)[C@H](O)[C@@H](O)[C@@H]1N[C@H]1C=C(CO)[C@@H](O)[C@H](O)[C@H]1O (some centres unmarked) [Acarbose, reference compound]
- type of inhibition (α-glucosidase [1]; Michaelis–Menten and Lineweaver–Burk plots): competitive inhibitor
- Kcat of α-glucosidase (α-glucosidase [1]; inhibitor 200 µM): 2.83 ± 0.33 s⁻¹
- Vmax of α-glucosidase (α-glucosidase [1]; inhibitor 200 µM, converted using the Lambert–Beer relationship): 12.7 ± 1.50 µM/min
- Kcat of α-glucosidase (α-glucosidase [1]; inhibitor 400 µM): 2.87 ± 0.39 s⁻¹
- Vmax of α-glucosidase (α-glucosidase [1]; inhibitor 400 µM, converted using the Lambert–Beer relationship): 12.9 ± 1.70 µM/min
- Kcat of α-glucosidase (α-glucosidase [1]; inhibitor 800 µM): 2.77 ± 0.44 s⁻¹
- Vmax of α-glucosidase (α-glucosidase [1]; inhibitor 800 µM, converted using the Lambert–Beer relationship): 12.4 ± 2.00 µM/min
- Vmax of α-glucosidase (α-glucosidase [1]; inhibitor 1600 µM): 0.120 ± 0.016 ΔΟD/min
- Kcat of α-glucosidase (α-glucosidase [1]; inhibitor 1600 µM): 2.66 ± 0.36 s⁻¹
- Vmax of α-glucosidase (α-glucosidase [1]; inhibitor 1600 µM, converted using the Lambert–Beer relationship): 12.0 ± 1.60 µM/min
- Kcat of α-glucosidase (α-glucosidase [1]; inhibitor 3200 µM): 2.79 ± 0.67 s⁻¹
- Vmax of α-glucosidase (α-glucosidase [1]; inhibitor 3200 µM, converted using the Lambert–Beer relationship): 12.5 ± 3.00 µM/min
- Kcat of α-glucosidase (α-glucosidase [1]; inhibitor 4000 µM): 3.12 ± 1.04 s⁻¹
- Vmax of α-glucosidase (α-glucosidase [1]; inhibitor 4000 µM, converted using the Lambert–Beer relationship): 14.1 ± 4.70 µM/min
- Kq (bimolecular quenching constant) (α-glucosidase [2]; 298 K): 3.75 ± 0.041 10^13 M^−1 s^−1
- n (number of binding sites) (α-glucosidase [2]; 298 K): 1.77
- ΔG° (free energy change) (α-glucosidase [2]; 298 K, Van ’t Hoff equation): 0.621 kcal/mol
- Ksv (Stern–Volmer quenching constant) (α-glucosidase [2]; 298 K): 3.75 ± 0.04 10^5 M^−1
- ΔH° (enthalpy change) (α-glucosidase [2]; [6]): -10.88 kcal/mol
- ∆S° (entropy change) (α-glucosidase [2]; [6]): −161.47 J mol^−1K^−1
- Kq (bimolecular quenching constant) (α-glucosidase [2]; 304 K): 1.89 ± 0.014 10^13 M^−1 s^−1
- n (number of binding sites) (α-glucosidase [2]; 304 K): 1.38
- ΔG° (free energy change) (α-glucosidase [2]; 304 K, Van ’t Hoff equation): 0.853 kcal/mol
- Ksv (Stern–Volmer quenching constant) (α-glucosidase [2]; 304 K): 1.89 ± 0.01 10^5 M^−1
- Kq (bimolecular quenching constant) (α-glucosidase [2]; 310 K): 1.80 ± 0.020 10^13 M^−1 s^−1
- n (number of binding sites) (α-glucosidase [2]; 310 K): 1.36
- ΔG° (free energy change) (α-glucosidase [2]; 310 K, Van ’t Hoff equation): 1.09 kcal/mol
- Ksv (Stern–Volmer quenching constant) (α-glucosidase [2]; 310 K): 1.80 ± 0.02 10^5 M^−1
- number of binding sites (α-glucosidase [2]; no temperature stated): approximately 1
- Inactivation rate constant K (α-glucosidase [3]; inhibitor 200 µM): 2.76 ± 0.07 10^−4 s^−1
- Inactivation rate constant K (α-glucosidase [3]; inhibitor 400 µM): 2.81 ± 0.07 10^−4 s^−1
- Inactivation rate constant K (α-glucosidase [3]; inhibitor 800 µM): 2.83 ± 0.05 10^−4 s^−1
- Inactivation rate constant K (α-glucosidase [3]; inhibitor 1600 µM): 2.84 ± 0.03 10^−4 s^−1
- Inactivation rate constant K (α-glucosidase [3]; inhibitor 3200 µM): 2.85 ± 0.01 10^−4 s^−1
- Inactivation rate constant K (α-glucosidase [3]; inhibitor 4000 µM): 2.85 ± 0.09 10^−4 s^−1
- reversibility of inhibition (α-glucosidase [4]): reversible inhibition

Compound: O=c1c(O)c(-c2ccc(O)cc2)oc2cc(O)cc(O)c12 [compound 1, kaempferol]
- type of inhibition (inhibition kinetic assays) (α-glucosidase [5]): non-competitive inhibitors

Compound: O=c1c(O)c(-c2ccc(O)c(O)c2)oc2cc(O)cc(O)c12 [compound 2, quercetin]
- type of inhibition (inhibition kinetic assays) (α-glucosidase [5]): non-competitive inhibitors

Compound: O=C(OC1C(O)C(CO)OC(Oc2c(-c3ccc(O)c(O)c3)oc3cc(O)cc(O)c3c2=O)C1O)c1cc(O)c(O)c(O)c1 (centres unmarked) [compound 3]
- type of inhibition (inhibition kinetic assays) (α-glucosidase [5]): non-competitive
- IC50 (α-glucosidase [5]): 970 nM

Compound: O=C(OC[C@@H]1O[C@@H](Oc2c(-c3ccc(O)c(O)c3)oc3cc(O)cc(O)c3c2=O)[C@@H](O)[C@H](O)[C@@H]1O)c1cc(O)c(O)c(O)c1 [compound 4]
- type of inhibition (inhibition kinetic assays) (α-glucosidase [5]): non-competitive inhibitor
- IC50 (α-glucosidase [5]): 1350 nM

Compound: O=C(OC[C@@H]1O[C@@H](Oc2c(-c3ccc(O)c(O)c3)oc3cc(O)cc(O)c3c2=O)[C@@H](O)[C@H](O)[C@H]1O)c1cc(O)c(O)c(O)c1 [compound 5]
- type of inhibition (inhibition kinetic assays) (α-glucosidase [5]): competitive inhibitor
- IC50 (α-glucosidase [5]): 27800 nM
